Values belong to the compound of their own block, whether it stands above or below them. Bridge positions count the residues as written; N and C are the ends. Peptide text beside a SMILES is read from it.
What was measured:
[1] = test system: anti-ALFA VHH; assay: binding affinity to the anti-ALFA VHH (log(agonist) vs. response, variable slope); conditions: for LogEC50: best-fit values, log(agonist) vs. response, variable slope; for EC50: binding to anti-ALFA VHH
[2] = Plasma stability, human plasma; conditions: for Conc. (% of T0) / Mean (compound concentration) / Tube 2 (compound concentration) / Tube 3 (compound concentration) / Tube 1 (compound concentration) / half-life: human plasma, 37° C.; for remaining at 2 h, 10 µM / remaining at 6 h, 10 µM: human Li-heparin plasma; for half-life: plasma
[3] = Plasma stability, mouse plasma; conditions: for remaining at 2 h, 10 µM / remaining at 6 h, 10 µM / remaining at 24 h, 10 µM: Balb C, Li-heparin plasma; for remaining at 2 h, 10 µM / remaining at 6 h, 10 µM / remaining at 24 h, 10 µM / half-life: mouse; for Conc. (% of T0) / Mean (compound concentration) / Tube 2 (compound concentration) / Tube 3 (compound concentration) / Tube 1 (compound concentration) / half-life: mouse plasma, 37° C.; for half-life: plasma, incubation 24 h (triplicates) or 6 h (duplicates)
Experimental: Plasma stability measurements were performed by spiking 5 μl of a 1 mM compound stock solution in DMSO into 495 μl of human or mouse Li-heparin plasma (Innovative Research, Cat. No, IPLALIH5OML (human) and IMS-BC-N (Balb C mouse). The spiked plasma was distributed in 50 μl aliquots into capped PCR tubes for incubation at 37° C. At each time point (0, 2, 6, 24 hours*) 3*aliquots were withdrawn from the incubator. Enzymatic reactions were quenched directly after withdrawal by adding 100 μl of acetonitrile/formic acid=99/1 (v/v). Quenched samples were stored at ambient temperature until the end of the incubation period (24 hrs*). After centrifugation, the supernatant was transferred into fresh vials and analyzed by LC-MS/MS in ESI positive mode (Waters ACQUITY UPLC I-Class System (SM-FTN) with Xevo TQD triple quadrupole mass spectrometer with control software Waters MassLynx). […] Values below the limit of quantification (0.1 μM) and outliers of triplicate results were excluded from further calculations. An exponential regression curve was fitted onto the concentration results. Half-life times were calculated from the slope of the regression curve (t1/2=ln(2)/slope).
For some samples, as indicated below, the incubation time was 6 hours. The 24 hour data was measured in triplicates whereas the 6 hour data was measured in duplicates.

[4] = molecular target: NbALFA; assay: SPR measurements of NbALFA binding (Biacore T200, multi cycle kinetics, 1:1 binding model); conditions: for Kd / ka / kd: 25° C., HBS-EP+ buffer, biotinylated NbALFA captured
Experimental: Affinity measurements were performed using a Biacore T200 (GE Healthcare, Biacore T200 control Software 3.2). […] A freshly docked Biotin CAPture chip was rehydrated overnight in the instrument (standby mode). […] The immobilization of the Nanobody was done for 180 s at 10 μL/min on FC2 followed by quenching of unbound streptavidin by 0.1 mM biocytin for 60 s and 30 μL/min on both flow cells. […] After each cycle, the surface was regenerated for 120 s with 10 μL/min using regeneration solution. All measurements were performed at 25° C. using HBS-EP+ buffer (Cytiva Europe, Cat. no BR100669). The control responses from FC1 were subtracted by the sample measurement in FC2 (FC2−FC1) followed by subtraction of the 0 nM blank injection. Resulting binding curves of this multi cycle kinetic experiment were fitted using the Biacore T200 Evaluation Software 3.2 and a 1:1 binding model.

[5] = Pharmacokinetic study in mouse, intravenous bolus, plasma LC-MS/MS, non-compartmental analysis; conditions: for AUC(0-inf): AUC0-inf; for AUC(0-t): AUC0-t
Experimental: C57BL/6NRj mice were obtained from Janvier Labs, France. In this study, approximately 8-week-old female mice were used.
Prior to administration into the lateral tail vein, the body weight of the animals was determined to calculate the individual volume of the injecting compound (5 mL/kg body weight). The injection, as well as the blood sampling, were carried out under short anesthesia (0.7 L/min O2, 1.7 L/min N2O, 2% Isoflurane). Blood was sampled from the retro-orbital plexus using microhematocrit capillary (Ø 0.8 mm) and collected into K3EDTA tubes, at the time points indicated in Table 10.
The plasma was separated by centrifugation (10,000×g; 10 min; 4° C.), aliquoted into microtubes and stored at −80° C.
20 μl of each plasma sample was transferred into PCR tubes. 80 μl IS (internal standard)-solution in acetonitrile+1% FA was added for protein precipitation.
The sample tubes were sealed with pierceable cap mats and vortexed. After homogenization for 5 min in an ultrasonic bath the samples were centrifuged at 3000 rpm at ambient temperature for 15 min. 1 μl supernatant was injected into the instrument for LC-MS/MS analysis. For LC-MS/MS quantification a ExionLC™ UHPLC coupled to a QTRAP® 6500+ mass spectrometer (Sciex) was used in ESI positive mode. Parameters for mass spectrometry were listed in the tables below, Chromatographic separation was achieved on a ACQUITY UPLC BEH C18 column (Waters, 1.7 μm, 2.1×50 mm).
Compound concentrations in plasma samples were calculated using a 10-point calibration curve in plasma over a concentration range of 1 to 1000 ng/ml. QC samples of 1, 10, 100, 1000 ng/ml were analyzed before and after each dose group. Samples exceeding the upper limit of quantification (1000 ng/ml) were re-analyzed after 10-fold dilution in blank plasma. All calculations were performed in Sciex OS Version 1.7.0.36606 and MS-EXCEL®.
Pharmacokinetic parameters were calculated for both compounds using the software Kinetica (version 4.4.1, Thermo Scientific) applying a non-compartmental model (NCA).

[6] = timepoint 0 h, calibration range 0.1 to 10 μM
[7] = human, Half-life time, incubation 24 h (triplicates) or 6 h (duplicates)
[8] = in vivo, iv, 3 mg/kg, single i.v.
[9] = in vivo, iv, normalized to a dose of 1 mg/kg, given 3 mg/kg i.v.

Compound: CC(=O)N[C@@H](CO)C(=O)N[C@@H](CCCNC(=N)N)C(=O)N[C@@H](CC(C)C)C(=O)N[C@@H](CCC(=O)O)C(=O)N[C@H]1CCC(=O)NCCCC[C@@H](C(=O)N[C@@H](CCCNC(=N)N)C(=O)N[C@@H](CCCNC(=N)N)C(=O)N[C@@H](CC(C)C)C(=O)N[C@H](C(=O)N[C@@H](CCC(=O)O)C(N)=O)[C@@H](C)O)NC(=O)[C@H](CC(C)C)NC(=O)[C@H](CCC(=O)O)NC1=O [SD15192, Ac-Ser-Arg-Leu-Glu-(cyclo5)Glu-Glu-Leu-(cyclo8)Lys-Arg-Arg-Leu-Thr-Glu-NH2] (Ac-SRLEEELKRRLTE-NH2; lactam 5-8)
LogEC50 [1]: 0.7765
EC50 [1]: 5.98 nM
Conc. (% of T0) ([2]; timepoint 0 h): 100.0 % of T0
Mean (compound concentration) ([2]; timepoint 0 h): 2.56
Tube 2 (compound concentration) ([2]; timepoint 0 h): 2.471
Tube 3 (compound concentration) ([2]; timepoint 0 h): 2.553
Tube 1 (compound concentration) [2, 6]: 2.667
Mean (compound concentration) ([2]; timepoint 2 h): 1.76
Tube 1 (compound concentration) ([2]; timepoint 2 h): 1.788
Tube 2 (compound concentration) ([2]; timepoint 2 h): 1.757
Tube 3 (compound concentration) ([2]; timepoint 2 h): 1.731
Mean (compound concentration) ([2]; timepoint 6 h): 0.88
Tube 1 (compound concentration) ([2]; timepoint 6 h): 0.876
Tube 2 (compound concentration) ([2]; timepoint 6 h): 0.868
Tube 3 (compound concentration) ([2]; timepoint 6 h): 0.883
Tube 1 (compound concentration) ([2]; timepoint 24 h): 0.031
Tube 2 (compound concentration) ([2]; timepoint 24 h): 0.036
Tube 3 (compound concentration) ([2]; timepoint 24 h): 0.046
remaining at 2 h, 10 µM ([2]; human): 68.6%
remaining at 6 h, 10 µM ([2]; human): 34.2%
half-life [2, 7]: 3.89 h
remaining at 2 h, 10 µM [3]: 85.9%
remaining at 6 h, 10 µM [3]: 65.7%
remaining at 24 h, 10 µM [3]: 23.9%
Conc. (% of T0) ([3]; timepoint 0 h): 100.0 % of T0
Mean (compound concentration) ([3]; timepoint 0 h): 2.70
Tube 2 (compound concentration) ([3]; timepoint 0 h): 2.705
Tube 3 (compound concentration) ([3]; timepoint 0 h): 2.658
Tube 1 (compound concentration) [3, 6]: 2.731
Mean (compound concentration) ([3]; timepoint 2 h): 2.32
Tube 1 (compound concentration) ([3]; timepoint 2 h): 2.366
Tube 2 (compound concentration) ([3]; timepoint 2 h): 2.256
Tube 3 (compound concentration) ([3]; timepoint 2 h): 2.33
Mean (compound concentration) ([3]; timepoint 6 h): 1.77
Tube 1 (compound concentration) ([3]; timepoint 6 h): 1.851
Tube 2 (compound concentration) ([3]; timepoint 6 h): 1.679
Tube 3 (compound concentration) ([3]; timepoint 6 h): 1.791
Mean (compound concentration) ([3]; timepoint 24 h): 0.64
Tube 1 (compound concentration) ([3]; timepoint 24 h): 0.637
Tube 2 (compound concentration) ([3]; timepoint 24 h): 0.656
Tube 3 (compound concentration) ([3]; timepoint 24 h): 0.638
half-life [3]: 707 min
Kd [4]: 0.0551 nM
ka [4]: 1.05e+07 M⁻¹ s⁻¹
kd [4]: 0.000577 s⁻¹

Compound: CC(=O)N[C@@H](CO)C(=O)N[C@@H](CCCNC(=N)N)C(=O)N[C@@H](CC(C)C)C(=O)N[C@@H](CCC(=O)O)C(=O)N[C@@H](CCC(=O)O)C(=O)N[C@@H](CCC(=O)O)C(=O)N[C@@H](CC(C)C)C(=O)N[C@@H](CCCNC(=N)N)C(=O)N[C@H]1CCCCNC(=O)CC[C@@H](C(N)=O)NC(=O)[C@H]([C@@H](C)O)NC(=O)[C@H](CC(C)C)NC(=O)[C@H](CCCNC(=N)N)NC1=O [SD15193, Ac-Ser-Arg-Leu-Glu-Glu-Glu-Leu-Arg-(cyclo9)Lys-Arg-Leu-Thr-(cyclo13)Glu-NH2] (Ac-SRLEEELRKRLTE-NH2; lactam 9-13)
LogEC50 [1]: 0.7818
EC50 [1]: 6.05 nM
Conc. (% of T0) ([2]; timepoint 0 h): 100.0 % of T0
Mean (compound concentration) ([2]; timepoint 0 h): 2.81
Tube 2 (compound concentration) ([2]; timepoint 0 h): 2.845
Tube 3 (compound concentration) ([2]; timepoint 0 h): 2.795
Tube 1 (compound concentration) [2, 6]: 2.799
Mean (compound concentration) ([2]; timepoint 2 h): 2.71
Tube 1 (compound concentration) ([2]; timepoint 2 h): 2.769
Tube 2 (compound concentration) ([2]; timepoint 2 h): 2.647
Tube 3 (compound concentration) ([2]; timepoint 2 h): 2.717
Mean (compound concentration) ([2]; timepoint 6 h): 2.66
Tube 1 (compound concentration) ([2]; timepoint 6 h): 2.774
Tube 2 (compound concentration) ([2]; timepoint 6 h): 2.678
Tube 3 (compound concentration) ([2]; timepoint 6 h): 2.527
Mean (compound concentration) ([2]; timepoint 24 h): 2.09
Tube 1 (compound concentration) ([2]; timepoint 24 h): 2.387
Tube 2 (compound concentration) ([2]; timepoint 24 h): 1.983
Tube 3 (compound concentration) ([2]; timepoint 24 h): 1.888
remaining at 24 h, 10 µM ([2]; human, Li-heparin plasma): 74.2%
remaining at 2 h, 10 µM ([2]; human): 96.4%
remaining at 6 h, 10 µM ([2]; human): 94.5%
half-life ([2]; human, Flag (half-life, assay exceeded)): > 24 h
half-life [2, 7]: 56.1 h
remaining at 2 h, 10 µM [3]: 87.5%
remaining at 6 h, 10 µM [3]: 72.7%
remaining at 24 h, 10 µM [3]: 39.4%
Conc. (% of T0) ([3]; timepoint 0 h): 100.0 % of T0
Mean (compound concentration) ([3]; timepoint 0 h): 3.29
Tube 2 (compound concentration) ([3]; timepoint 0 h): 3.236
Tube 3 (compound concentration) ([3]; timepoint 0 h): 3.311
Tube 1 (compound concentration) [3, 6]: 3.315
Mean (compound concentration) ([3]; timepoint 2 h): 2.88
Tube 1 (compound concentration) ([3]; timepoint 2 h): 2.864
Tube 2 (compound concentration) ([3]; timepoint 2 h): 2.972
Tube 3 (compound concentration) ([3]; timepoint 2 h): 2.789
Mean (compound concentration) ([3]; timepoint 6 h): 2.39
Tube 1 (compound concentration) ([3]; timepoint 6 h): 2.383
Tube 2 (compound concentration) ([3]; timepoint 6 h): 2.443
Tube 3 (compound concentration) ([3]; timepoint 6 h): 2.346
Mean (compound concentration) ([3]; timepoint 24 h): 1.30
Tube 1 (compound concentration) ([3]; timepoint 24 h): 1.253
Tube 2 (compound concentration) ([3]; timepoint 24 h): 1.397
Tube 3 (compound concentration) ([3]; timepoint 24 h): 1.236
half-life [3]: 1110 min
Kd [4]: 0.0556 nM
ka [4]: 1.95e+07 M⁻¹ s⁻¹
kd [4]: 0.00109 s⁻¹

half-life ([5]; female, C57BL/6NRj, plasma, iv, 3 mg/kg): 6.69 min
area under the curve (AUC) compared to the linear alpha compound ([5]; i.v., in words): much higher
clearance compared to the linear alpha compound ([5]; i.v., in words): drastically reduced
MRT inf ([5]; in vivo, iv, 3 mg/kg): 4.5 min
MRT last ([5]; in vivo, iv, 3 mg/kg): 4.47 min
Tmax ([5]; in vivo, iv, 3 mg/kg): 1 min
clearance ([5]; in vivo, iv, 3 mg/kg): 3.17 L/h/kg
AUC(0-inf) [5, 8]: 0.948 µg·h/mL
AUC(0-t) [5, 8]: 0.947 µg·h/mL
C0 ([5]; in vivo, iv, 3 mg/kg, C0, single i.v.): 15.4 µg/mL
Cmax [5, 8]: 12.7 µg/mL
Vd ([5]; in vivo, iv, 3 mg/kg, Vss, single i.v., 3 mg/kg): 0.237 L/kg
Vd ([5]; in vivo, iv, 3 mg/kg, Vz, single i.v.): 0.509 L/kg
AUC(0-inf) [5, 9]: 0.316 µg·h/mL
AUC(0-t) [5, 9]: 0.316 µg·h/mL
C0 ([5]; in vivo, iv, C0, normalized to a dose of 1 mg/kg, given 3 mg/kg i.v.): 5.13 µg/mL
Cmax [5, 9]: 4.24 µg/mL
AUCextra ([5]; single i.v., 3 mg/kg): 0.05%
Vc ([5]; single i.v., 3 mg/kg): 0.195 L/kg
t1/2effective ([5]; single i.v., 3 mg/kg): 3.10 min
t1/2initial ([5]; single i.v., 3 mg/kg): 2.41 min
λinitial ([5]; single i.v., 3 mg/kg): 0.29 min⁻¹
λterminal ([5]; single i.v., 3 mg/kg): 0.10 min⁻¹
Kd [4]: 0.0194 nM
ka [4]: 1.86e+07 M⁻¹ s⁻¹
kd [4]: 0.000361 s⁻¹
binding with respect to NbALFA ([4]; in words): very good binding
Compound: CC(=O)N1CCC[C@H]1C(=O)N[C@@H](CO)C(=O)N[C@@H](CCCNC(=N)N)C(=O)N[C@@H](CC(C)C)C(=O)N[C@@H](CCC(=O)O)C(=O)N[C@H]1CCC(=O)NCCCC[C@@H](C(=O)N[C@@H](CCCNC(=N)N)C(=O)N[C@@H](CC(C)C)C(=O)N[C@H](C(=O)N[C@@H](CCC(=O)O)C(N)=O)[C@@H](C)O)NC(=O)[C@H](CCCNC(=N)N)NC(=O)[C@H](CC(C)C)NC(=O)[C@H](CCC(=O)O)NC1=O [SD15341, Ac-Pro-Ser-Arg-Leu-Glu-(cyclo6)Glu-Glu-Leu-Arg-(cyclo10)Lys-Arg-Leu-Thr-Glu-NH2] (Ac-PSRLEEELRKRLTE-NH2; lactam 6-10)

Compound: Ac-SRLEEELRRRLTE-NH2 [SD15197, Ac-Ser-Arg-Leu-Glu-Glu-Glu-Leu-Arg-Arg-Arg-Leu-Thr-Glu-NH2, reference compound]
LogEC50 [1]: 0.4145
EC50 [1]: 2.6 nM
EC50 ([1]; listed as parent linear ALFA peptide): 2.6 nM
Kd [4]: 0.0117 nM
ka [4]: 5.05e+07 M⁻¹ s⁻¹
kd [4]: 0.000593 s⁻¹

Reference: patent US20250154202A1, “CYCLIC EPITOPE TAGS” (BIONTECH SE, priority 2022, published 2025)
